Source: ChEMBL document CHEMBL1132398, “Identification of (-)-cis-6-acetyl-4S-(3-chloro-4-fluoro-benzoylamino)- 3,4-dihydro-2,2-dimethyl-2H-benzo[b]pyran-3S-ol as a potential antimigraine agent” (Bioorg Med Chem Lett, 1999)

Tests used:
Rattus norvegicus [1] = experiment: In vivo percent increase in seizure threshold in rat MEST model at the dose of 10 mg/kg p.o. recorded 2 hr post dose; assay type: functional; conditions: route oral
Rattus norvegicus [2] = experiment: In vivo percent increase in seizure threshold in rat MEST model at the dose of 10 mg/kg p.o. recorded 0.5 hr post dose; assay type: functional; conditions: route oral
Rattus norvegicus [3] = experiment: In vivo percent increase in seizure threshold in rat MEST model at the dose of 10 mg/kg p.o. recorded 1 hr post dose; assay type: functional; conditions: route oral
Rattus norvegicus [4] = experiment: In vivo percent increase in seizure threshold in rat MEST model at the dose of 10 mg/kg p.o. recorded 6 hr post dose; assay type: functional; conditions: route oral
Rattus norvegicus [5] = organism: Rattus norvegicus; experiment: Ability to displace [3H]- SB-204269 in the rat forebrain
Rattus norvegicus [6] = experiment: In vivo percent increase in seizure threshold in rat MEST model at the dose of 10 mg/kg p.o. recorded 0.25 hr post dose; assay type: functional; conditions: route oral
Mus musculus [7] = experiment: In vivo percent increase in seizure threshold in mouse MEST model 1 hour following 10 mg/kg p.o.; conditions: at 10 mg/kg
Mus musculus [8] = experiment: In vivo percent increase in seizure threshold in mouse MEST model 4 hours following 10 mg/kg p.o.; conditions: at 10 mg/kg
Rattus norvegicus [9] = experiment: In vivo percent increase in seizure threshold in rat MEST model at the dose of 3 mg/kg p.o. recorded 2 hr post dose; assay type: functional; conditions: route oral
Rattus norvegicus [10] = experiment: In vivo percent increase in seizure threshold in rat MEST model at the dose of 3 mg/kg p.o. recorded 1 hr post dose; assay type: functional; conditions: route oral
Rattus norvegicus [11] = experiment: In vivo percent increase in seizure threshold in rat MEST model at the dose of 3 mg/kg p.o. recorded 6 hr post dose; assay type: functional; conditions: route oral
Rattus norvegicus [12] = experiment: In vivo percent increase in seizure threshold in rat MEST model at the dose of 3 mg/kg p.o. recorded 0.25 hr post dose; assay type: functional; conditions: route oral
Rattus norvegicus [13] = experiment: In vivo percent increase in seizure threshold in rat MEST model at the dose of 3 mg/kg p.o. recorded 4 hr post dose; assay type: functional; conditions: route oral
Rattus norvegicus [14] = experiment: In vivo percent increase in seizure threshold in rat MEST model at the dose of 3 mg/kg p.o. recorded 0.5 hr post dose; assay type: functional; conditions: route oral

**Q.** For `CC(=O)c1ccc2c(c1)[C@H](NC(=O)c1ccc(F)cc1)[C@@H](O)C(C)(C)O2` [CARABERSAT], which Increase (Rattus norvegicus [1]) is on record?
**A.** 420%

**Q.** And the Increase (Rattus norvegicus [2])?
**A.** 90%

**Q.** And the Increase (Rattus norvegicus [3])?
**A.** 180%

**Q.** And the Increase (Rattus norvegicus [4])?
**A.** 390%

**Q.** What about the “Log Ki” value (Rattus norvegicus [5]) of the same compound?
**A.** -7.3

**Q.** And the Increase (Rattus norvegicus [6])?
**A.** 48%

**Q.** Which results are given for `CC(=O)c1ccc2c(c1)[C@H](NC(=O)c1ccc(F)cc1Cl)[C@H](O)C(C)(C)O2`?
**A.** Increase (Mus musculus [7]): 153%; Increase (Mus musculus [8]): 269%; Log Ki (Rattus norvegicus [5]): -7.2

**Q.** Which Increase (Mus musculus [7]) does the source give for `CC(=O)c1ccc2c(c1)[C@H](NC(=O)c1ccsc1)[C@@H](O)C(C)(C)O2` here?
**A.** 50%

**Q.** With `CC(=O)c1ccc2c(c1)[C@H](NC(=O)c1cccc(Cl)c1)[C@@H](O)C(C)(C)O2` as the compound, how does the Increase (Rattus norvegicus [1]) read?
**A.** 796%

**Q.** And the Increase (Rattus norvegicus [2])?
**A.** 273%

**Q.** What about the Increase (Rattus norvegicus [3]) of the same compound?
**A.** 507%

**Q.** What about the Increase (Mus musculus [7]) of the same compound?
**A.** 90%

**Q.** What about the Increase (Rattus norvegicus [4]) of the same compound?
**A.** 983%

**Q.** And the Increase (Mus musculus [8])?
**A.** 945%

**Q.** And the Increase (Rattus norvegicus [6])?
**A.** 157%

**Q.** How did the Log Ki (Rattus norvegicus [5]) turn out when `CC(=O)c1ccc2c(c1)[C@@H](NC(=O)c1cccc(Cl)c1)[C@@H](O)C(C)(C)O2` was run?
**A.** > -5.4

**Q.** For `CC(=O)c1ccc2c(c1)[C@H](NC(=O)c1ccsc1Cl)[C@@H](O)C(C)(C)O2`, which Increase (Mus musculus [7]) is on record?
**A.** 95%

**Q.** What about the Increase (Mus musculus [8]) of the same compound?
**A.** 519%

**Q.** With `CC(=O)c1ccc2c(c1)[C@H](NC(=O)c1cc(Cl)cc(Cl)c1Cl)[C@@H](O)C(C)(C)O2` as the compound, how does the Increase (Mus musculus [7]) read?
**A.** 33%

**Q.** How did the Increase (Mus musculus [7]) turn out when `CC(=O)c1ccc2c(c1)[C@H](NC(=O)c1c(Cl)cccc1Cl)[C@@H](O)C(C)(C)O2` was run?
**A.** 10%

**Q.** Which Increase (Mus musculus [7]) does the source give for `CC(=O)c1ccc2c(c1)[C@H](NC(=O)c1ccsc1Cl)[C@H](O)C(C)(C)O2` here?
**A.** 47%

**Q.** And the Increase (Mus musculus [8])?
**A.** 383%

**Q.** And the “Log Ki” value (Rattus norvegicus [5])?
**A.** -7.5

**Q.** How did the Increase (Rattus norvegicus [9]) turn out when `CC(=O)c1ccc2c(c1)[C@H](NC(=O)c1ccc(F)c(Cl)c1)[C@H](O)C(C)(C)O2` [TONABERSAT] was run?
**A.** 576%

**Q.** What about the Increase (Rattus norvegicus [10]) of the same compound?
**A.** 369%

**Q.** And the Increase (Rattus norvegicus [11])?
**A.** 638%

**Q.** What about the Increase (Rattus norvegicus [12]) of the same compound?
**A.** 76%

**Q.** What about the “Log Ki” value (Rattus norvegicus [5]) of the same compound?
**A.** -7.9

**Q.** What about the Increase (Rattus norvegicus [13]) of the same compound?
**A.** 533%

**Q.** And the Increase (Rattus norvegicus [14])?
**A.** 202%

**Q.** Which Increase (Mus musculus [7]) does the source give for `CC(=O)c1ccc2c(c1)[C@H](NC(=O)c1cccnc1)[C@@H](O)C(C)(C)O2` here?
**A.** 30%

**Q.** What does the source list for `CC(=O)c1ccc2c(c1)[C@H](NC(=O)c1ccc(F)cc1Cl)[C@@H](O)C(C)(C)O2`?
**A.** Increase (Rattus norvegicus [9]): 660%; Increase (Mus musculus [7]): 162%; Increase (Rattus norvegicus [10]): 300%; Increase (Rattus norvegicus [11]): 1060%; Increase (Mus musculus [8]): 1080%; Increase (Rattus norvegicus [12]): 90%; Increase (Rattus norvegicus [13]): 900%; Increase (Rattus norvegicus [14]): 208%

**Q.** Which results are given for `CC(=O)c1ccc2c(c1)[C@H](NC(=O)c1cccc(Cl)c1)[C@H](O)C(C)(C)O2`?
**A.** Increase (Mus musculus [7]): 93%; Increase (Mus musculus [8]): 604%

**Q.** Which results are given for `CC(=O)c1ccc2c(c1)[C@H](NC(=O)c1cccc(Cl)c1Cl)[C@@H](O)C(C)(C)O2`?
**A.** Increase (Rattus norvegicus [1]): 1124%; Increase (Rattus norvegicus [2]): 286%; Increase (Rattus norvegicus [3]): 880%; Increase (Rattus norvegicus [4]): 1076%; Increase (Rattus norvegicus [6]): 104%

**Q.** `CC(=O)c1ccc2c(c1)[C@H](NC(=O)c1cnccn1)[C@@H](O)C(C)(C)O2` was tested. Which Increase (Mus musculus [7]) did it give?
**A.** 15%
